According to paper PMC6600542 (Molecules, 2019):
Values joined by “and” are separate entries in the source; they are usually repeats but may differ in a detail not shown here. Equal entries are not always repeated.

Legend:
[1] = system: human plasma deficient of FIX; experiment: APTT clotting assay, FIX-deficient plasma; type: biochemical
Protocol: (§1) For the PT assay, thromboplastin-D was reconstituted according to the manufacturer’s directions and warmed to 37 °C. […] After incubation for 4 min at 37 °C, clotting was initiated by adding 100 μL of prewarmed 25 mM CaCl2 and the time to clotting was noted. […] To determine the in vitro effect on the APTT of deficient human plasmas, the APTT assay was repeated, using human plasmas deficient of factor VII (FVII), factor IX (FIX), FXI, or factor XII (FXII). […] The positive control used in APTT and PT assays was rivaroxaban, a clinically used FXa inhibitor. Under the conditions reported, rivaroxaban doubled the APTT and PT at concentrations of 0.123 ± 0.003 µM and 0.193 ± 0.043 µM, respectively.

[2] = system: human plasma deficient of FXI; experiment: APTT clotting assay, FXI-deficient plasma; type: biochemical
Protocol: as §1

normal human plasma = experiment: PT clotting assay, normal human plasma; type: biochemical; conditions: for concentration to double the PT: normal human plasma (text)
Protocol: as §1

human α-thrombin = target: T1, human α-thrombin (Homo sapiens, UniProt P00734); experiment: Thrombin chromogenic substrate hydrolysis assay; type: biochemical
T1 construct: purchased Haematologic Technologies, Inc
Protocol: (§2) Direct inhibition of human FXa and α-thrombin of the common coagulation pathway and human plasmin of the fibrinolysis pathway were measured using the corresponding chromogenic substrate hydrolysis assays at 37 °C and pH 7.4, as reported earlier using the 96-microplate platform. […] After 10 min incubation, 5 µL Spectrozyme FXa (5 mM stock conc.) was rapidly added and the residual activity of FXa was measured from the initial rate of increase in absorbance at 405 nm. […] The concentration vs effect curve was constructed using logistic Equation (1) from which the potency (IC50) and efficacy (ΔY) of inhibition were also obtained.
For thrombin and plasmin, the assays were performed using substrates appropriate for each enzyme (Spectrozyme TH for thrombin and Spectrozyme PL for plasmin) under conditions closest to the physiological condition. The KM of the substrate for its enzyme was used to identify the concentration of the substrate to be used for inhibition studies. […] After 10 min incubation, 5 µL Spectrozyme TH (1.0 mM stock conc.) was rapidly added and the residual activity of thrombin was measured from the initial rate of increase in absorbance at 405 nm. […] After 10 min incubation, 5 µL Spectrozyme PL (1.0 mM stock conc.) was rapidly added and the residual activity of plasmin was measured from the initial rate of increase in absorbance at 405 nm. […]

human FXa = human FXa (Homo sapiens, UniProt P00742); experiment: FXa chromogenic substrate hydrolysis assay; type: biochemical; conditions: pH 7.4, 37 °C
Protocol: as §2

bovine chymotrypsin = target: T2, bovine chymotrypsin (Bos taurus, UniProt P00766); experiment: Chymotrypsin chromogenic substrate hydrolysis assay; type: biochemical; conditions: pH 7.4
T2 construct: purchased Millipore-Sigma
Protocol: Direct inhibition of the human coagulation transglutaminase FXIIIa was also studied using a fluorescence-based transglutamination assay as reported in the literature.
After 10 min incubation, 5 µL FXIa substrate (6.9 mM stock concentration) was rapidly added and the residual FXIa activity was measured from the initial rate of increase in absorbance at 405 nm. Assays were performed in similar fashion with trypsin and chymotrypsin. Stock concentrations used were 18.9 µg/mL (trypsin) and 22.7 mM (S-2222) for bovine trypsin assay (final volume was 200 µL) and 2 µg/mL (chymotrypsin) and 16.2 mM (N-Succinyl-Ala-Ala-Pro-Phe-p-nitroanilide) for bovine chymotrypsin assay (final volume was 200 µL). The buffer used for FXIa, trypsin, chymotrypsin assays was 50 mM Tris-HCl buffer, pH 7.4, containing 150 mM NaCl, 2.5 mM CaCl2, 0.1% PEG8000, and 0.02% Tween80. Neutrophil elastase inhibition assay was performed in a 96-well plate with a final volume of 100 µl with 0.125 M 4-(2-hydroxyethyl)-1-piperazineethanesulfonic acid (HEPES) buffer, pH 7.4 containing 0.125% Triton-X 100, as reported earlier. […] After incubation, 3 µL neutrophil elastase substrate (S-1384; 25 mM stock conc.) was rapidly added and the residual enzyme activity measured from the initial rate of increase in the absorbance at 405 nm.

human plasmin = human plasmin (Homo sapiens, UniProt P00747); experiment: Michaelis-Menten kinetics of Spectrozyme PL hydrolysis by plasmin; type: biochemical; conditions: for VMAX of Spectrozyme PL hydrolysis: pH 7.4, 37 °C
Protocol: The initial rate of Spectrozyme FXa hydrolysis by human FXa (87 nM) or that of Spectrozyme PL hydrolysis by human plasmin (120 nM) was monitored from the linear increase in absorbance at 405 nm corresponding to less than 10% consumption of the substrate. […] The data were fitted by Michaelis-Menten Equation (2) to determine KM (substrate affinity to the enzyme) and VMAX (maximum velocity of enzyme reaction). (2) Vi=VMAX×[S]/KM+[S]

[3] = system: platelet-aggregation induced by adenosine diphosphate, epinephrine, thrombin, and collagen; conditions: cited from earlier work
[4] = design: method as in PMID 3491164, PMID 3680992, PMID 1984463; conditions: patients; read-out: means of plasma CMAX; cited from earlier work

human plasmin, sequence (P00747 581-810 limits assumed): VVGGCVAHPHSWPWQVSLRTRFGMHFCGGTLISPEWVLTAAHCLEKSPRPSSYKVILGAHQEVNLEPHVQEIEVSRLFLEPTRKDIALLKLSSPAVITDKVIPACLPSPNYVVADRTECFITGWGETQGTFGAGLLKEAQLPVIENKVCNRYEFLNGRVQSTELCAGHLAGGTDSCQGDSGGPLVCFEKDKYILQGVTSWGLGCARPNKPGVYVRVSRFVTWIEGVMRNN
human plasmin, sequence (P00747 97-580 partner limits assumed): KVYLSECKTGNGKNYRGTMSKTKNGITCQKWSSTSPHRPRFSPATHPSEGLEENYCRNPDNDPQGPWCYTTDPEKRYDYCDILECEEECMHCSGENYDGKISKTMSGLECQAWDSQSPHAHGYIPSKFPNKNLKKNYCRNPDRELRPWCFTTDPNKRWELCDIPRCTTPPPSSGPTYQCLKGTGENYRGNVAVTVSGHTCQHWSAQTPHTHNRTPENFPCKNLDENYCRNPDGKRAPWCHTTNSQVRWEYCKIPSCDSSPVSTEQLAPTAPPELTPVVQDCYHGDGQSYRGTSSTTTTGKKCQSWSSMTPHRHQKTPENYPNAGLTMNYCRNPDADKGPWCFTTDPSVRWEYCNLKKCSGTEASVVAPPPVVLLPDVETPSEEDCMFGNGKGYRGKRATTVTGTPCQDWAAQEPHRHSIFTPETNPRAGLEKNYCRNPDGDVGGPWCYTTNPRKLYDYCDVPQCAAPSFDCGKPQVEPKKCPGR
human FXa, sequence (P00742 235-488 limits assumed): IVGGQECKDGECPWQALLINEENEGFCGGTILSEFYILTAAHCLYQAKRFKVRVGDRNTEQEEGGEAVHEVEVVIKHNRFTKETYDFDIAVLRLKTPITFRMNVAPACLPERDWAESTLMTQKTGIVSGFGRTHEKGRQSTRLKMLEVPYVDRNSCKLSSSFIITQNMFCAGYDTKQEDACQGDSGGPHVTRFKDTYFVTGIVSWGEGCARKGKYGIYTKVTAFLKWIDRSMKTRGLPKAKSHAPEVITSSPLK
human FXa, sequence (P00742 41-179 partner limits assumed): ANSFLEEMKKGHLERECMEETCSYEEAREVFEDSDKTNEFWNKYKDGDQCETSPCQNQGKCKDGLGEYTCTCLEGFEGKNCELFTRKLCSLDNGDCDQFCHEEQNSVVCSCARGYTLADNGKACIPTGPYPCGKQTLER

N=C(N)c1ccc(OCCCCCOc2ccc(C(=N)N)cc2)cc1 [pentamidine isethionate, 4,4′-(pentane-1,5-diylbis(oxy))-dibenzimidamide]
APTTEC2×, concentration to double clotting time [1]: 26.32 ± 3.52 µm
APTTEC2×, concentration to double clotting time [2]: 29.48 ± 3.88 µm
PTEC2×, concentration to double clotting time (normal human plasma; PT assay, normal human plasma): 45.70 ± 0.85 µm
concentration to double the PT (normal human plasma): 45.7 µM and 45.70 ± 0.85 µM
concentration to double the PT (normal human plasma; listed as pentamidine): lower than 50 µM
IC50 (human α-thrombin; Thrombin, pH 7.4, 37 °C): > 100 µM
inhibition at 100 µM (human α-thrombin; thrombin, at 100 µM (highest concentration tested)): < 40%
HS (human FXa): 0.97 ± 0.07
IC50 (human FXa): ~10 µM and 10.4 µM
∆Y (efficacy) (human FXa): 101.6 ± 2.9%
∆Y (efficacy) (human FXa; listed as pentamidine): ~ 100%
IC50 (bovine chymotrypsin): > 1750 µM
VMAX of Spectrozyme PL hydrolysis (human plasmin; 10 µM pentamidine isethionate): 78.7 ± 2.0 mAU/min
VMAX of Spectrozyme PL hydrolysis (human plasmin; 20 µM pentamidine isethionate): 88.4 ± 1.0 mAU/min
VMAX of Spectrozyme PL hydrolysis (human plasmin; 50 µM pentamidine isethionate): 92.9 ± 3.2 mAU/min
VMAX of Spectrozyme PL hydrolysis (human plasmin; 100 µM pentamidine isethionate): 90.9 ± 6.5 mAU/min
type of inhibition of plasmin (human plasmin; Michaelis-Menten kinetics): competitively inhibits
increase of KM for Spectrozyme PL (human plasmin; inhibitor 100 μM vs absence): ~ 13.9 fold
concentration that completely inhibited platelet-aggregation [3]: greater than 8.4 µM
Cmax [4]: ≤ 1000 nM
